Biological target: T1, Adenosine receptor A1 (Rattus norvegicus) (UniProt P25099)
T1 sequence (whole entry): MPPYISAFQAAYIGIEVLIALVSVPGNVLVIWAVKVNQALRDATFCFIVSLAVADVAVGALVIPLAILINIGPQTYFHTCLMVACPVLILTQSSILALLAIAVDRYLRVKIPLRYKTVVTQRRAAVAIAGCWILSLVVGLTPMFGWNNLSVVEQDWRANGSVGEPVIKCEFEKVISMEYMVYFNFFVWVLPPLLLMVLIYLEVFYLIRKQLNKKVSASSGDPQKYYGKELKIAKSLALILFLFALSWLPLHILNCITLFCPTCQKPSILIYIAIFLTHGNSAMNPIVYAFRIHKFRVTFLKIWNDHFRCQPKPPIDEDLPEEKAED
Experiment: Percentage inhibition against [3H]-PIA binding to A1-adenosine receptor in rat brain at 10e-4 nM
Assay type: tissue-based

Row | SMILES | inhibition [%]
1 | CCNC(=O)[C@H]1OC(n2cnc3c(O)ncnc32)[C@H](O)[C@@H]1O (stereo not given in full) | 44
2 | CNC(=O)[C@H]1O[C@@H](n2cnc3c(O)ncnc32)[C@H](O)[C@@H]1O | 0

Biological target: T1, Adenosine receptor A1 (Rattus norvegicus)
Experiment: Percentage inhibition against [3H]PIA binding to A1-adenosine receptor in rat brain at 10e-5 nM
Assay type: tissue-based

Row | SMILES | inhibition [%]
3 | CC(C)(C)OC(=O)NCCNC(=O)[C@H]1O[C@@H](n2cnc3c(N)ncnc32)[C@H](O)[C@@H]1O | 0

Biological target: T2, Adenosine A2 receptor (Rattus norvegicus) (UniProt P29276+P30543)
Experiment: Percentage inhibition of [3H]-CGS- 21680 binding to […] receptor in rat brain at 10e-4 nM
Assay type: tissue-based

Row | SMILES | inhibition [%]
4 | CCNC(=O)[C@H]1OC(n2cnc3c(O)ncnc32)[C@H](O)[C@@H]1O (stereo not given in full) | 31
5 | CNC(=O)[C@H]1O[C@@H](n2cnc3c(O)ncnc32)[C@H](O)[C@@H]1O | 6.2

Biological target: T2, Adenosine A2 receptor (Rattus norvegicus)
Experiment: Percentage inhibition of [3H]-CGS- 21680 binding to […] receptor in rat brain at 10e-5 nM
Assay type: tissue-based

Row | SMILES | inhibition [%]
6 | CC(C)(C)OC(=O)NCCNC(=O)[C@H]1O[C@@H](n2cnc3c(N)ncnc32)[C@H](O)[C@@H]1O | 0

Biological target: T1, Adenosine receptor A1 (Rattus norvegicus)
Experiment: Percentage inhibition against [3H]PIA binding to A1-adenosine receptor in rat brain at 1xe-4 nM
Assay type: tissue-based

Row | SMILES | inhibition [%]
7 | CNC(=O)[C@H]1OC(n2cnc3c(NCc4ccc(S(=O)(=O)O)cc4)ncnc32)[C@H](O)[C@@H]1O (stereo not given in full) | 0

Biological target: T2, Adenosine A2 receptor (Rattus norvegicus)
Experiment: Percentage inhibition against [3H]-CGS- 21680 binding to A2-adenosine receptor in rat brain at 1xe-4 nM
Assay type: tissue-based

Row | SMILES | inhibition [%]
8 | CNC(=O)[C@H]1OC(n2cnc3c(NCc4ccc(S(=O)(=O)O)cc4)ncnc32)[C@H](O)[C@@H]1O (stereo not given in full) | 0

System: not listed separately
Experiment: Ratio of binding affinities for A2 receptor compared to that of A3 receptor

Row | SMILES | Ratio
9 | CCNC(=O)[C@H]1O[C@@H](n2cnc3c(NCc4ccc([N+](=O)[O-])cc4)ncnc32)[C@H](O)[C@@H]1O | 64
10 | CCNC(=O)[C@H]1O[C@@H](n2cnc3c(NCc4ccccc4[N+](=O)[O-])ncnc32)[C@H](O)[C@@H]1O | 8.6
11 | CCNC(=O)[C@H]1OC(n2cnc3c(N[C@@H](C)c4ccccc4)ncnc32)[C@H](O)[C@@H]1O (stereo not given in full) | 3.3
12 | CCNC(=O)[C@H]1OC(n2cnc3c(O)ncnc32)[C@H](O)[C@@H]1O (stereo not given in full) | > 1
13 | CC(C)(C)OC(=O)NCCNC(=O)[C@H]1O[C@@H](n2cnc3c(N)ncnc32)[C@H](O)[C@@H]1O | > 1
14 | CCNC(=O)[C@H]1O[C@@H](n2cnc3c(NCc4ccccc4)ncnc32)[C@H](O)[C@@H]1O | 14
15 | CCNC(=O)[C@H]1O[C@@H](n2cnc3c(NCc4cccc(I)c4)ncnc32)[C@H](O)[C@@H]1O | 8.2
16 | CNC(=O)[C@H]1OC(n2cnc3c(NCc4cccc([N+](=O)[O-])c4)ncnc32)[C@H](O)[C@@H]1O (stereo not given in full) | 23
17 | CCNC(=O)[C@H]1O[C@@H](n2cnc3c(NCc4cccc(F)c4)ncnc32)[C@H](O)[C@@H]1O | 3
18 | CCNC(=O)[C@H]1O[C@@H](n2cnc3c(NCc4cccc(Cl)c4)ncnc32)[C@H](O)[C@@H]1O | 17
19 | CNC(=O)[C@H]1O[C@@H](n2cnc3c(NCc4ccccc4)ncnc32)[C@H](O)[C@@H]1O | 37
20 | CNC(=O)[C@H]1OC(n2cnc3c(NCc4ccc(N)cc4)ncnc32)[C@H](O)[C@@H]1O (stereo not given in full) | 110
21 | CCNC(=O)[C@H]1OC(n2cnc3c(N)[n+]([O-])cnc32)[C@H](O)[C@@H]1O (stereo not given in full) | 0.22
22 | CNC(=O)[C@H]1O[C@@H](n2cnc3c(NCc4cccc(C)c4)ncnc32)[C@H](O)[C@@H]1O | 42
23 | CCNC(=O)[C@H]1O[C@@H](n2cnc3c(NCc4ccccc4OC)ncnc32)[C@H](O)[C@@H]1O | 3
24 | NC(=O)[C@H]1O[C@@H](n2cnc3c(NCc4ccccc4)ncnc32)[C@H](O)[C@@H]1O | 1.7
25 | CNC(=O)[C@H]1O[C@@H](n2cnc3c(NCc4cccc(Cl)c4)ncnc32)[C@H](O)[C@@H]1O | 25
26 | CNC(=O)[C@H]1O[C@@H](n2cnc3c(O)ncnc32)[C@H](O)[C@@H]1O | > 10
27 | CNC(=O)[C@H]1OC(n2cnc3c(NCc4ccc(S(=O)(=O)O)cc4)ncnc32)[C@H](O)[C@@H]1O (stereo not given in full) | > 100

Biological target: T3, Adenosine receptor A3 (Rattus norvegicus, UniProt P28647)
T3 sequence (P28647 whole entry): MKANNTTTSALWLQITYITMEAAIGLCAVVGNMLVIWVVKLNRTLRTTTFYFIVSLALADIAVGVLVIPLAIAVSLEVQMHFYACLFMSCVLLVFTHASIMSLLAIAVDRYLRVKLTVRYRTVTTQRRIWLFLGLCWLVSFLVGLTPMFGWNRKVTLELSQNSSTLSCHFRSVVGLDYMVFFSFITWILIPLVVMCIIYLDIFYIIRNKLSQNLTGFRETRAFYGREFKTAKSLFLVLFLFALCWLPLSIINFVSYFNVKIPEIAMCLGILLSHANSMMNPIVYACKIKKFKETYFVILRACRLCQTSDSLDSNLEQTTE
Experiment: not given

Row | SMILES | Ki [nM]
28 | CCNC(=O)[C@H]1OC(n2cnc3c(N)[n+]([O-])cnc32)[C@H](O)[C@@H]1O (stereo not given in full) | 468
29 | CNC(=O)[C@H]1O[C@@H](n2cnc3c(NCc4cccc(Cl)c4)ncnc32)[C@H](O)[C@@H]1O | 21.9

Biological target: Adenosine A2 receptor (Rattus norvegicus, UniProt P29276+P30543)
Experiment: not given

Row | SMILES | Ki [nM]
30 | CCNC(=O)[C@H]1O[C@@H](n2cnc3c(NCc4ccccc4[N+](=O)[O-])ncnc32)[C@H](O)[C@@H]1O | 24
31 | CCNC(=O)[C@H]1OC(n2cnc3c(N[C@@H](C)c4ccccc4)ncnc32)[C@H](O)[C@@H]1O (stereo not given in full) | 1650
32 | CCNC(=O)[C@H]1O[C@@H](n2cnc3c(NCc4ccccc4)ncnc32)[C@H](O)[C@@H]1O | 95
33 | CCNC(=O)[C@H]1O[C@@H](n2cnc3c(NCc4cccc(I)c4)ncnc32)[C@H](O)[C@@H]1O | 7.2
34 | CNC(=O)[C@H]1OC(n2cnc3c(NCc4cccc([N+](=O)[O-])c4)ncnc32)[C@H](O)[C@@H]1O (stereo not given in full) | 441
35 | CCNC(=O)[C@H]1O[C@@H](n2cnc3c(NCc4cccc(F)c4)ncnc32)[C@H](O)[C@@H]1O | 32
36 | CCNC(=O)[C@H]1O[C@@H](n2cnc3c(NCc4cccc(Cl)c4)ncnc32)[C@H](O)[C@@H]1O | 19
37 | CNC(=O)[C@H]1O[C@@H](n2cnc3c(NCc4ccccc4)ncnc32)[C@H](O)[C@@H]1O | 597
38 | CNC(=O)[C@H]1OC(n2cnc3c(NCc4ccc(N)cc4)ncnc32)[C@H](O)[C@@H]1O (stereo not given in full) | 1590
39 | CCNC(=O)[C@H]1OC(n2cnc3c(N)[n+]([O-])cnc32)[C@H](O)[C@@H]1O (stereo not given in full) | 101
40 | CNC(=O)[C@H]1O[C@@H](n2cnc3c(NCc4cccc(C)c4)ncnc32)[C@H](O)[C@@H]1O | 415
41 | CCNC(=O)[C@H]1O[C@@H](n2cnc3c(NCc4ccccc4OC)ncnc32)[C@H](O)[C@@H]1O | 21
42 | NC(=O)[C@H]1O[C@@H](n2cnc3c(NCc4ccccc4)ncnc32)[C@H](O)[C@@H]1O | 423
43 | CNC(=O)[C@H]1O[C@@H](n2cnc3c(NCc4cccc(Cl)c4)ncnc32)[C@H](O)[C@@H]1O | 559

Biological target: T4, Adenosine receptor A1 (Rattus norvegicus, UniProt P25099)
T4 sequence (P25099 whole entry): T1 sequence (whole entry)
Experiment: biochemical
Description: Binding affinity for A1-adenosine receptor by the displacement of specific [3H]-PIA binding in rat brain was determined

Row | SMILES | Ki [nM]
44 | CCNC(=O)[C@H]1OC(n2cnc3c(N[C@@H](C)c4ccccc4)ncnc32)[C@H](O)[C@@H]1O (stereo not given in full) | 65
45 | CNC(=O)[C@H]1OC(n2cnc3c(NCc4cccc([N+](=O)[O-])c4)ncnc32)[C@H](O)[C@@H]1O (stereo not given in full) | 735
46 | CCNC(=O)[C@H]1OC(n2cnc3c(N)[n+]([O-])cnc32)[C@H](O)[C@@H]1O (stereo not given in full) | 154
47 | CNC(=O)[C@H]1O[C@@H](n2cnc3c(NCc4cccc(Cl)c4)ncnc32)[C@H](O)[C@@H]1O | 916

Biological target: T3, Adenosine receptor A3
Experiment: biochemical
Description: Binding affinity for rat A3-adenosine receptor expressed in chinese hamster ovarian cells (assayed by the displacement of specific [125I]-N6-(4-amino-3-iodobenzyl)-adenosine-5''-N-methyluronamide)

Row | SMILES | Ki [nM]
48 | CCNC(=O)[C@H]1OC(n2cnc3c(N[C@@H](C)c4ccccc4)ncnc32)[C@H](O)[C@@H]1O (stereo not given in full) | 494
49 | CNC(=O)[C@H]1OC(n2cnc3c(NCc4cccc([N+](=O)[O-])c4)ncnc32)[C@H](O)[C@@H]1O (stereo not given in full) | 19
50 | CNC(=O)[C@H]1OC(n2cnc3c(NCc4ccc(S(=O)(=O)O)cc4)ncnc32)[C@H](O)[C@@H]1O (stereo not given in full) | 4500

Source: ChEMBL document CHEMBL1127835, “Structure-activity relationships of N6-benzyladenosine-5'-uronamides as A3-selective adenosine agonists” (J Med Chem, 1994)
